Measurements as given in the SangsterLogP compilation.

Experiment: method code SF-HPLC, from DOI: 10.1002/qsar.200300824

logP	Compound
2.16	O=c1cc(C2=NOS(=O)N2c2ccccc2)c2ccccc2o1 (stereo not drawn)
2.12	Cc1nc(-c2cc(=O)oc3ccccc23)no1
1	CC(=O)ON=C(N)c1cc(=O)oc2ccccc12
1.95	O=c1cc(-c2ncon2)c2ccccc2o1
0.22	O=c1oc2ccccc2c(C(CCO)=NO)c1Cl
2.58	O=c1oc2ccccc2c(C(=NO)Nc2ccccc2)c1Cl
3.03	O=c1cc(-c2noc(=S)n2-c2ccccc2)c2ccccc2o1
2.7	CC1ON=C(c2cc(=O)oc3ccccc23)N1c1ccccc1 (stereo not drawn)
2.78	O=c1oc2ccccc2c(C(=NO)NC2CCCCC2)c1Cl
3.22	O=c1cc(-c2noc(-c3ccccc3)n2)c2ccccc2o1
2.98	COc1ccc(-c2nc(-c3cc(=O)oc4ccccc34)no2)cc1
2.89	Cc1ccc(NC(=NO)c2c(Cl)c(=O)oc3ccccc23)cc1
3.04	COc1ccc(C2=NOC(c3cc(=O)oc4ccccc34)O2)cc1 (stereo not drawn)
3.63	O=c1cc(C=NNc2ccccc2)c2ccccc2o1
3.07	COc1ccc(-c2noc(-c3cc(=O)oc4ccccc34)n2)cc1
1.93	CC1NC(c2cc(=O)oc3ccccc23)=NO1 (stereo not drawn)
1.98	O=c1cc(C2=NOCN2)c2ccccc2o1
2.45	O=c1cc(C2=NOCN2c2ccccc2)c2ccccc2o1
